Experimental data: patent EP1602719B1, “Control of transglutaminase catalyzed protein modification by selective irreversible transglutaminase inhibitors” (N-Zyme BioTec GmbH, priority 2004, dated 2005)
Peptide text beside a SMILES is read from it. * marks the point of attachment. Cbz = O=C(OCc1ccccc1)*; Acryloyl = C=CC(=O)*

Molecular target: T1, Meerschweinchenlebertransglutaminase (Cavia cutleri, UniProt P08587)
T1 sequence (P08587 1-690): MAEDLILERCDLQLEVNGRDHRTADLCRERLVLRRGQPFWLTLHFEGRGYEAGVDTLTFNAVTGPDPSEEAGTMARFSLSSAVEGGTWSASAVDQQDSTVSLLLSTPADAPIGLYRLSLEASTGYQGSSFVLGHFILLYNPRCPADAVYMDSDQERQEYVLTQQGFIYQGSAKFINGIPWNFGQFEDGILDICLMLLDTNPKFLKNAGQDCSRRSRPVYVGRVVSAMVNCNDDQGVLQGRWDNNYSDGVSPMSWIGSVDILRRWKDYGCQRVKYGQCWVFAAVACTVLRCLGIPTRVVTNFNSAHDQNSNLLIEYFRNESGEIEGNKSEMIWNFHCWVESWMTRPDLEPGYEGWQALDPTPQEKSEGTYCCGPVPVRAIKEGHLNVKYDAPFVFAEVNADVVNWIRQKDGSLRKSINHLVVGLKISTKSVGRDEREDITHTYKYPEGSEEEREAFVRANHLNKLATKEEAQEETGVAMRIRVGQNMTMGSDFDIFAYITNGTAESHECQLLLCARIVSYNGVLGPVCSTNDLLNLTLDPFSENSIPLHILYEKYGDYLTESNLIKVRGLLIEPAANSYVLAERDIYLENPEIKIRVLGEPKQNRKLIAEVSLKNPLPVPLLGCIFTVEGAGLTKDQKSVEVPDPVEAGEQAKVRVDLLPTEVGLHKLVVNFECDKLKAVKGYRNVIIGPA
Test: Transglutaminase-catalysed labelling of recombinant hLeptin with Z-Gln-Gly-CAD-DNS, reaction stopped by inhibitor, RP-HPLC (Beispiel 7)
Format: biochemical, Meerschweinchen
Conditions: inhibitor 0,5 mM
Experimental: Alle nachfolgend beschriebenen Experimente wurden nach dem gleichen Standardprotokoll durchgeführt. Dabei werden das jeweilige Zielprotein und das farbstofftragende amin- oder glutaminhaltige Substrat in einem geeigneten Puffer vorgelegt und für 5 Min. auf 37°C temperiert. Anschließend wird durch Zugabe von Transglutaminase die Reaktion gestartet. Nach variierenden Inkubationszeiten, durch die jeweils verschiedene Markierungsgrade erreicht werden, wird durch Zugabe eines Inhibitors die Transglutaminase vollständig und irreversibel inaktiviert (Reaktionsabbruch 1). In Kontrollexperimenten wird die Markierungsreaktion durch Abtrennung des ungebundenen, farbstofftragenden Substrates unterbrochen (Reaktionsabbruch 2). Die Abtrennung des ungebundenen Farbstoffes erfolgt unter Normaldruck über eine PD-10-Säule (Amersham Biosciences). Dieses allgemein einsetzbare Verfahren zur schnellen Abtrennung kleiner Moleküle von Makromolekülen wie Proteinen basiert auf dem Prinzip der Gelpermeationschromatographie und kann als das vorteilhafteste Verfahren zur Reaktionskontrolle nach dem Stand der Technik angesehen werden. Andere Verfahren, mit denen die weitere katalytische Markierungsreaktion abgebrochen werden könnte, sind weniger geeignet oder nicht allgemein einsetzbar (z. B. thermische, unspezifische chemische oder affinitätschromatographische Methoden). Die Gelpermeationschromatographie wurde jeweils so schnell wie technisch machbar durchgeführt. Dazu wird auf die vorkonditionierte PD-10-Säule 2,5 ml des Reaktionsvolumens aufgetragen und die Lösung vollständig in das Trennmaterial eingebracht. Anschließend wird das Protein mit 3,5 ml Puffer eluiert. Die niedermolekularen Substanzen verbleiben auf der Säule. Der Gesamtprozess benötigt eine Zeitspanne von mindestens 3 Minuten. Während dieser Zeit kann Transglutaminase weiter auf das Zielprotein einwirken. […]

Inaktivierung der Meerschweinchenlebertransglutaminase (added after 5 Min., GpTGase 0,25 U/ml, pH 8): vollständig
SMILES: C=CC(=O)NCCCC[C@H](NC(=O)OCc1ccccc1)C(=O)NCC(=O)O [Z-Lys(Acryloylamid)-Gly-OH, N^α-Benzyloxycarbonyl-L-lysinyl(ε-acryloyl)glycin] (Cbz-Lys(Acryloyl)-Gly-OH)
weitere Labeling- und Quervernetzungsreaktionen (stopped reaction mixture kept at RT for 30 and 60 Min.): keine weitere Labeling- und Quervernetzungsreaktionen
weitere enzymatische Reaktionen nach Lagerung (stored 10 days at -20°C, then one hour at RT): keine weiteren enzymatischen Reaktionen mehr
